Active and inactive are the calls of the source. The rule behind the calls is not given here.
How the values were obtained:
Pseudomonas aeruginosa [1] = test: Antibacterial activity against Pseudomonas aeruginosa MTCC 2453 at 50 ug/ml by cup-plate method; type: functional; conditions: read-out: DIZ
Escherichia coli [2] = test: Antibacterial activity against Escherichia coli MTCC 739 at 300 ug/ml by cup-plate method; type: functional; conditions: read-out: DIZ
Staphylococcus aureus [3] = test: Antibacterial activity against Staphylococcus aureus MTCC 96 at 300 ug/ml by cup-plate method; type: functional; conditions: read-out: DIZ
Bacillus subtilis [4] = test: Antibacterial activity against Bacillus subtilis MTCC 121 at 200 ug/ml by cup plate method; type: functional; conditions: read-out: DIZ
Escherichia coli [5] = test: Antibacterial activity against Escherichia coli MTCC 739 at 200 ug/ml by cup-plate method; type: functional; conditions: read-out: DIZ
Bacillus subtilis [6] = test: Antibacterial activity against Bacillus subtilis MTCC 121 at 100 ug/ml by cup plate method; type: functional; conditions: read-out: DIZ
Escherichia coli [7] = test: Antibacterial activity against Escherichia coli MTCC 739 by cup-plate method; type: functional, organism-based
Pseudomonas aeruginosa [8] = test: Antibacterial activity against Pseudomonas aeruginosa MTCC 2453 at 200 ug/ml by cup-plate method; type: functional; conditions: read-out: DIZ
Pseudomonas aeruginosa [9] = test: Antibacterial activity against Pseudomonas aeruginosa MTCC 2453 at 100 ug/ml by cup-plate method; type: functional; conditions: read-out: DIZ
Pseudomonas aeruginosa [10] = test: Antibacterial activity against Pseudomonas aeruginosa MTCC 2453 by cup-plate method; type: functional, organism-based
Staphylococcus aureus [11] = test: Antibacterial activity against Staphylococcus aureus MTCC 96 at 50 ug/ml by cup-plate method; type: functional; conditions: read-out: DIZ
Pseudomonas aeruginosa [12] = test: Antibacterial activity against Pseudomonas aeruginosa MTCC 2453 at 300 ug/ml by cup-plate method; type: functional; conditions: read-out: DIZ
Staphylococcus aureus [13] = test: Antibacterial activity against Staphylococcus aureus MTCC 96 at 100 ug/ml by cup-plate method; type: functional; conditions: read-out: DIZ
Escherichia coli [14] = test: Antibacterial activity against Escherichia coli MTCC 739 at 100 ug/ml by cup-plate method; type: functional; conditions: read-out: DIZ
Bacillus subtilis [15] = test: Antibacterial activity against Bacillus subtilis MTCC 121 at 300 ug/ml by cup plate method; type: functional; conditions: read-out: DIZ
Staphylococcus aureus [16] = test: Antibacterial activity against Staphylococcus aureus MTCC 96 at 200 ug/ml by cup-plate method; type: functional; conditions: read-out: DIZ
Staphylococcus aureus [17] = test: Antibacterial activity against Staphylococcus aureus MTCC 96 by cup-plate method; type: functional, organism-based
Escherichia coli [18] = test: Antibacterial activity against Escherichia coli MTCC 739 at 50 ug/ml by cup-plate method; type: functional; conditions: read-out: DIZ
Bacillus subtilis [19] = test: Antibacterial activity against Bacillus subtilis MTCC 121 by cup plate method; type: functional, organism-based
Bacillus subtilis [20] = test: Antibacterial activity against Bacillus subtilis MTCC 121 at 50 ug/ml by cup plate method; type: functional; conditions: read-out: DIZ
Candida albicans = test: Antifungal activity against Candida albicans MTCC 227 at 50 to 300 ug/ml by cup-plate method; type: functional, organism-based

Row | Structure (SMILES) | zone of inhibition at 50 µg/mL (Pseudomonas aeruginosa [1]) | zone of inhibition at 300 µg/mL (Escherichia coli [2]) | zone of inhibition at 300 µg/mL (Staphylococcus aureus [3]) | zone of inhibition at 200 µg/mL (Bacillus subtilis [4]) | zone of inhibition at 200 µg/mL (Escherichia coli [5]) | zone of inhibition at 100 µg/mL (Bacillus subtilis [6]) | Activity (Escherichia coli [7]) | zone of inhibition at 200 µg/mL (Pseudomonas aeruginosa [8]) | zone of inhibition at 100 µg/mL (Pseudomonas aeruginosa [9]) | Activity (Pseudomonas aeruginosa [10]) | zone of inhibition at 50 µg/mL (Staphylococcus aureus [11]) | zone of inhibition at 300 µg/mL (Pseudomonas aeruginosa [12]) | zone of inhibition at 100 µg/mL (Staphylococcus aureus [13]) | zone of inhibition at 100 µg/mL (Escherichia coli [14]) | zone of inhibition at 300 µg/mL (Bacillus subtilis [15]) | zone of inhibition at 200 µg/mL (Staphylococcus aureus [16]) | Activity (Staphylococcus aureus [17]) | zone of inhibition at 50 µg/mL (Escherichia coli [18]) | Activity (Bacillus subtilis [19]) | zone of inhibition at 50 µg/mL (Bacillus subtilis [20]) | also measured
1 | O=C1N/C(=N\c2ccc(Cl)cc2)S/C1=C\c1ccccc1[N+](=O)[O-] | 7 mm | 9 mm | 10 mm | 10 mm | 9 mm | 9 mm | Dose-dependent effect | 8 mm | 8 mm | Dose-dependent effect | 8 mm | 9 mm | 9 mm | 8 mm | 11 mm | 10 mm | Dose-dependent effect | 6 mm | Dose-dependent effect | 8 mm | Activity (Candida albicans): inactive
2 | O=C1N/C(=N\c2ccc(Cl)cc2)S/C1=C\c1ccc(O)cc1 | 7 mm | 8 mm | 8 mm | 7 mm | 8 mm | 7 mm | Dose-dependent effect | 8 mm | 8 mm | Dose-dependent effect | 6 mm | 9 mm | 7 mm | 7 mm | 8 mm | 7 mm | Dose-dependent effect | 7 mm | Dose-dependent effect | 6 mm | Activity (Candida albicans): inactive
3 | O=C1N/C(=N\c2cccc(Cl)c2)S/C1=C\c1ccccc1Cl | 6 mm | 8 mm | 9 mm | 8 mm | 8 mm | 8 mm | Dose-dependent effect | 7 mm | 7 mm | Dose-dependent effect | 7 mm | 8 mm | 8 mm | 7 mm | 9 mm | 8 mm | Dose-dependent effect | 7 mm | Dose-dependent effect | 7 mm | Activity (Candida albicans): inactive
4 | O=C1N/C(=N\c2ccc(Cl)cc2)S/C1=C\c1ccccc1Cl | 9 mm | 9 mm | 10 mm | 9 mm | 10 mm | 8 mm | Dose-dependent effect | 9 mm | 9 mm | Dose-dependent effect | 8 mm | 9 mm | 8 mm | 9 mm | 10 mm | 9 mm | Dose-dependent effect | 9 mm | Dose-dependent effect | 8 mm | Activity (Candida albicans): inactive
5 | O=C1N/C(=N\c2ccc(Cl)cc2)S/C1=C\c1cccc([N+](=O)[O-])c1 | 8 mm | 10 mm | 10 mm | 10 mm | 9 mm | 10 mm | Dose-dependent effect | 9 mm | 9 mm | Dose-dependent effect | 8 mm | 11 mm | 9 mm | 8 mm | 11 mm | 9 mm | Dose-dependent effect | 7 mm | Dose-dependent effect | 9 mm | Activity (Candida albicans): inactive
6 | O=C1N/C(=N\c2cccc(Cl)c2)S/C1=C\c1ccc(O)cc1 | 7 mm | 9 mm | 10 mm | 8 mm | 8 mm | 7 mm | Dose-dependent effect | 9 mm | 8 mm | Dose-dependent effect | 8 mm | 10 mm | 9 mm | 7 mm | 9 mm | 9 mm | Dose-dependent effect | 7 mm | Dose-dependent effect | 6 mm | Activity (Candida albicans): inactive
7 | O=C1N/C(=N\c2ccc(F)c(Cl)c2)S/C1=C\c1cccc([N+](=O)[O-])c1 | 8 mm | 10 mm | 16 mm | 14 mm | 9 mm | 12 mm | Dose-dependent effect | 11 mm | 10 mm | Dose-dependent effect | 11 mm | 12 mm | 12 mm | 8 mm | 15 mm | 14 mm | Dose-dependent effect | 7 mm | Dose-dependent effect | 12 mm | Activity (Candida albicans): inactive
8 | O=C1N/C(=N\c2cccc(Cl)c2)S/C1=C\c1ccccc1 | 6 mm | 8 mm | 9 mm | 7 mm | 7 mm | 7 mm | Dose-dependent effect | 8 mm | 7 mm | Dose-dependent effect | 6 mm | 9 mm | 7 mm | 7 mm | 7 mm | 8 mm | Dose-dependent effect | 7 mm | Dose-dependent effect | 6 mm | Activity (Candida albicans): inactive
9 | O=C1N/C(=N\c2ccc(F)c(Cl)c2)S/C1=C\c1ccccc1[N+](=O)[O-] | 8 mm | 12 mm | 14 mm | 13 mm | 11 mm | 12 mm | Dose-dependent effect | 10 mm | 9 mm | Dose-dependent effect | 10 mm | 11 mm | 12 mm | 9 mm | 13 mm | 13 mm | Dose-dependent effect | 8 mm | Dose-dependent effect | 10 mm | Activity (Candida albicans): inactive
10 | O=C1N/C(=N\c2cccc(Cl)c2)S/C1=C\c1ccc(Cl)cc1 | 7 mm | 9 mm | 10 mm | 10 mm | 9 mm | 8 mm | Dose-dependent effect | 8 mm | 8 mm | Dose-dependent effect | 7 mm | 8 mm | 8 mm | 9 mm | 10 mm | 9 mm | Dose-dependent effect | 7 mm | Dose-dependent effect | 7 mm | Activity (Candida albicans): inactive

— ChEMBL document CHEMBL3044899, “Effect of chloro and fluoro groups on the antimicrobial activity of 2,5-disubstituted 4-thiazolidinones: a comparative study” (2012)
